Results as given in patent US20060183043A1, “Electrophotographic photoreceptor containing pyridine-substituted asymmetric naphthalenetetracarboxylic acid diimide derivatives and electrophotographic imaging apparatus” (Samsung Electronics Co., Ltd., priority 2005, published 2006).

Experiment: Solubility test (amount of organic solvent needed to completely dissolve 1 g of compound)
Format: physicochemical
Settings: 1 g compound, room temperature, solvent added drop by drop with stirring
Protocol: 1 g of a compound to be tested was poured into a test tube with stirring at room temperature and solvents listed in Table 1 were slowly added drop by drop. The amounts of the solvents required to completely dissolve 1 g of the tested compound were measured.

Amount of solvent required to completely dissolve 1 g of the tested compound: Acetone [g] | Amount of solvent required to completely dissolve 1 g of the tested compound: Chloroform [g] | Amount of solvent required to completely dissolve 1 g of the tested compound: Methylene chloride [g] | Amount of solvent required to completely dissolve 1 g of the tested compound: Tetrahydrofuran [g] | SMILES
282 | 8.6 | 10.2 | 9.7 | CCc1ccc(C)nc1N1C(=O)c2ccc3c4c(ccc(c24)C1=O)C(=O)N(c1nc(C)ccc1CC)C3=O [Compound (40)]
130 | 5.3 | 6.5 | 5.8 | CCc1ccc(C)nc1N1C(=O)c2ccc3c4c(ccc(c24)C1=O)C(=O)N(c1ccccc1)C3=O [Compound (1)]
